Assay [1] deals with LC3. In words: immunoblotting of LC3 in S. typhimurium-infected J774A.1 cells treated with a lysosomal V-ATPase inhibitor. The assay is classed as cell-based. The note with it: 100 nM, 4 hours. Here is the method: (§1) First, J774A.1 macrophages (Korean Cell Line Bank) were cultured in RPMI (Rosewell Park Memorial Institue) supplemented with 10% FBS and 100 units/mL penicillin/streptomycin, and HeLa cells were cultured in Dulbecco's Modified Eagle's Medium (DMEM; Gibco, 10566016) supplemented with 10% FBS and 100 units/mL penicillin/streptomycin. All cell lines were tested negative for mycoplasma using the MycoAlert detection kit (Lonza, LT07-118), and all culture plates and cell lines were maintained in a humidified incubator at 37° C. and 5% CO2.
Macrophage J774A.1 and HeLa cells were infected with Salmonella typhimurium, a Gram-negative bacterium, and the expression of LC3 was monitored through immunoblotting. Mouse monoclonal anti-[…] (Abcam, ab56416, 1: 100,000) was used for immunoblotting, rabbit polyclonal anti-LC3 (Sigma, L7543, 1:40,000) was used for immunoblotting, and anti-rabbit IgG-HRP (Cell Signaling, 7074, 1:10,000) and anti-mouse IgG-HRP (Cell Signaling, 7076, 1:1000) were used as secondary antibodies.
The J774A.1 cells of Experimental Example 1-1 were treated with bafilomycin A1 (100 nM), an inhibitor of lysosomal V-ATPase, for 4 hours, and immunoblotting was performed in the same manner as in Experimental Example 1-1. However, there was no difference in the degree of inhibition of LC3-I and LC-II expression even when treated with lysosomal V-ATPase inhibitor (FIG. 1E).
(In western blotting, separated proteins are transferred to a membrane and probed.)

The test system of assay [2] is LC3. In words: immunoblotting of LC3 in J774A.1 and HeLa cells treated with LPS. Type of assay: cell-based. The note with it: 100 ng/mL, 6 hours. Here is the method: as §1
[…] Mouse monoclonal anti-β62 (Abcam, ab56416, 1: 100,000) was used for immunoblotting, rabbit polyclonal anti-LC3 (Sigma, L7543, 1:40,000) was used for immunoblotting, and anti-rabbit IgG-HRP (Cell Signaling, 7074, 1:10,000) and anti-mouse IgG-HRP (Cell Signaling, 7076, 1:1000) were used as secondary antibodies.
In addition, in order to rule out the possibility that J774A.1 and HeLa cells lack the ability to induce autophagy in response to pathogen invasion, the J774A.1 and HeLa cells of Experimental Example 1-1 were treated with lipopolysaccharide (LPS) (100 ng/mL), a component of the outer membrane of Gram-negative bacteria, as a pathogen-associated molecular pattern (PAMP) for 6 hours, and immunoblotting was performed in the same manner as in Experimental Example 1-1.

The source of these data is patent publication US20250120944A1, “ANTIBACTERIAL COMPOSITION” (SEOUL NATIONAL UNIVERSITY R&DB FOUNDATION, priority 2021, published 2025).

Take `CO/C1=C\C(C)=C\[C@@H](C)[C@@H](O)[C@@H](C)C/C(C)=C/C=C/[C@H](OC)[C@@H]([C@@H](C)[C@@H](O)[C@H](C)[C@@]2(O)C[C@@H](O)[C@H](C)[C@@H](C(C)C)O2)OC1=O` [bafilomycin A1]: the “degree of inhibition of LC3-I and LC-II expression” value in the assay on LC3 [1] is reported as “no difference”. Take lipopolysaccharide [LPS]: in the assay with LC3 [2], the “lipidation of LC3 (LC3-II)” value is recorded as “strongly induced” and the “synthesis of LC3 (LC3-I)” value is “strongly induced”.
